≈ marks a conversion by molar mass, not a printed value. Where two headings read alike, the source gives them in different places.
What was measured:
[1] = Acute toxicity test in mice; details: mouse, in vivo, ip, intraperitoneal injection
Tetrahymena pyriformis W = assay: Growth inhibitory activity, serial dilution method; type: cell-based; details: 28° C., 44 to 48 hours, pH 7.0, read-out: growth inhibition concentration
Protocol: The potency of the antibiotic was assayed with Tetrahymena pyriformis W as an assay organism.
(§1) On the other hand, with agar plates containing the assay medium [3.5 g disodium hydrogen phosphate, 0.5 g monopotassium dihydrogen phosphate, 5 g yeast extract (Difco), 10 g glucose, 15 g agar, 1000 ml distilled water, pH 7.0], the growth inhibition against Talaromyces avellaneus was assayed. In this assay, the minimal inhibitory concentrations were 3 μg/ml for C-15003 P-3 and P-3', and 1.5 μg/ml for C-15003 P-4. Furthermore, the wild strain of Tetrahymena pyriformis W as an assay organism was cultivated on an assay medium [composed of 20 g Proteose-peptone (Difco), 1 g yeast extract, 2 g glucose, 1000 ml distilled water and 10 ml 1 M-phosphate buffer pH 7.0] at 28° C. for 44 to 48 hours and the growth inhibitory activity of the antibiotic compounds against this particular microorganism was determined by the serial dilution method. Growth inhibition occurred at 1 μg/ml for C-15003 P-3 and P-3', and at 0.5 μg/ml for C-15003 P-4.

P388 leukemia = assay: Antitumour activity, P388 leukemia in mice; type: in vivo, mouse; details: 0.00625 mg/kg/day, intraperitoneally for 9 consecutive days; 1×10^6 cells/animal, intraperitoneally transplanted
Mycobacterium avium = assay: Antimicrobial activity, paper disc method; type: cell-based; details: 0.02 ml of 300 μg/ml solution, trypticase-soy agar
Protocol: (§2) With trypticase-soy agar (BBL) as an assay medium, the inhibitory concentrations against the microorganisms named below were investigated by the paper disc method. Thus, filter-paper discs (Toyo Seisakusho, thin-type, 8 mm dia.) each impregnated with 0.02 ml of a 300 μg/ml solution of C-15003 P-3, P-3' or P-4 were placed on plates respectively inoculated with the microorganisms named below to investigate the minimal inhibitory concentrations.

Pseudomonas aeruginosa = assay: Antimicrobial activity, paper disc method; type: cell-based; details: 0.02 ml of 300 μg/ml solution, trypticase-soy agar
Protocol: as §2

Serratia marcescens = assay: Antimicrobial activity, paper disc method; type: cell-based; details: 0.02 ml of 300 μg/ml solution, trypticase-soy agar
Protocol: as §2

Bacillus cereus = assay: Antimicrobial activity, paper disc method; type: cell-based; details: 0.02 ml of 300 μg/ml solution, trypticase-soy agar
Protocol: as §2

Klebsiella pneumoniae = assay: Antimicrobial activity, paper disc method; type: cell-based; details: 0.02 ml of 300 μg/ml solution, trypticase-soy agar
Protocol: as §2

Proteus mirabilis = assay: Antimicrobial activity, paper disc method; type: cell-based; details: 0.02 ml of 300 μg/ml solution, trypticase-soy agar
Protocol: as §2

Bacillus subtilis = assay: Antimicrobial activity, paper disc method; type: cell-based; details: 0.02 ml of 300 μg/ml solution, trypticase-soy agar
Protocol: as §2

Escherichia coli = assay: Antimicrobial activity, paper disc method; type: cell-based; details: 0.02 ml of 300 μg/ml solution, trypticase-soy agar
Protocol: as §2

Proteus vulgaris = assay: Antimicrobial activity, paper disc method; type: cell-based; details: 0.02 ml of 300 μg/ml solution, trypticase-soy agar
Protocol: as §2

Staphylococcus aureus = assay: Antimicrobial activity, paper disc method; type: cell-based; details: 0.02 ml of 300 μg/ml solution, trypticase-soy agar
Protocol: as §2

Talaromyces avellaneus = assay: Growth inhibition on agar plates; type: cell-based; details: Hamigera avellanea, pH 7.0, read-out: minimal inhibitory concentration
Protocol: as §1

[2] = in chloroform, ethyl acetate, acetone, ethanol, methanol, pyridine, tetrahydrofuran & dimethylsulfoxide

Row | SMILES | Solubility (in benzene & ether) | Solubility [2] | Solubility (in petr. ether, hexane & water) | LD50 [1] | MIC (Tetrahymena pyriformis W) | life span-extending ratio (P388 leukemia) | antimicrobial activity (minimal inhibitory concentration) (Mycobacterium avium) | antimicrobial activity (minimal inhibitory concentration) (Pseudomonas aeruginosa) | antimicrobial activity (minimal inhibitory concentration) (Serratia marcescens) | antimicrobial activity (minimal inhibitory concentration) (Bacillus cereus) | antimicrobial activity (minimal inhibitory concentration) (Klebsiella pneumoniae) | antimicrobial activity (minimal inhibitory concentration) (Proteus mirabilis) | antimicrobial activity (minimal inhibitory concentration) (Bacillus subtilis) | antimicrobial activity (minimal inhibitory concentration) (Escherichia coli) | antimicrobial activity (minimal inhibitory concentration) (Proteus vulgaris) | antimicrobial activity (minimal inhibitory concentration) (Staphylococcus aureus) | MIC (Talaromyces avellaneus)
1 | COc1cc2cc(c1Cl)N(C)C(=O)CC(OC(=O)CC(C)C)C1(C)OC1C(C)C1CC(O)(NC(=O)O1)C(OC)C=CC=C(C)C2 (stereo not shown) [C-15003 P-4] | Sparingly soluble | Soluble | Insoluble | > 0.313 mg/kg | 0.5 µg/mL (≈ 0.77 µM) | 200% | no activity | no activity | no activity | no activity | no activity | no activity | no activity | no activity | no activity | no activity | 1.5 µg/mL (≈ 2.31 µM)
2 | COc1cc2cc(c1Cl)N(C)C(=O)CC(OC(=O)C(C)C)C1(C)OC1C(C)C1CC(O)(NC(=O)O1)C(OC)C=CC=C(C)C2 (stereo not shown) [C-15003 P-3] | Sparingly soluble | Soluble | Insoluble | > 0.313 mg/kg | 1 µg/mL (≈ 1.57 µM) | 200% | no activity | no activity | no activity | no activity | no activity | no activity | no activity | no activity | no activity | no activity | 3 µg/mL (≈ 4.72 µM)

From patent US4360462A (priority 1977, dated 1982)
